“Also recorded” adds a separate entry of the source.
Assays:
[1] = system: spermatozoa; assay: Sperm DNA fragmentation (SDF) by dispersion test, Halosperm G2 Kit; assay type: cell-based, human; details: for DNA-fragmentation change (SDF, ratio treated/untreated): mean±SD
Procedure: (§1) Between 1.46 mL and 5.7 mL human semen/spermatozoa were collected from healthy males of between 25 and 50 years of age in 100 mL sample vials on site. Samples were then divided into two equal fractions each for subsequent incubation with CO (wCO) and without CO (woCO). In order to estimate the spermatozoa concentration in the samples and to establish an initial baseline for each sample, a routine spermiogram was performed before samples were transferred to gas-tight 15 mL Falcon tubes. Samples were incubated at 25-35 °C for 90 minutes with and without an activated CORS system in a closed container. During this incubation period liquefaction took place naturally. The samples were then analyzed for total motility, progressive motility, static oxidation-reduction potential, and for DNA fragmentation. Total motility, progressive motility and concentration of the samples were assessed using a CEROS II (Hamilton Thorne, Beverly, MA) computer assisted sperm analysis (CASA) system. 6 μL of a sperm sample diluted 1:1 with Multipurpose Handling Medium-Complete (MHM-C, FujiFilm/IrvineScientific, Santa Ana, CA) was measured and the concentration and level of mobility (total and progressive motility) was assessed.
To determine DNA fragmentation a count-based microscopy assay was performed. For this spermatozoa samples were diluted using MHM-C (Multipurpose Handling Medium-Complete, FujiFilm, IrvineScientific) to a maximum of 20×E6 spermatozoa per mL and analyzed using a Halo Sperm G2 Kit (Halotech, Madrid, Spain). Samples were mixed with the prepared agarose according to manufacturer instructions. 8 μL of the resulting mixture was then put on microscopy slides and cooled down for 5 minutes by removing the heat source. The prepared samples were further treated according to the manufacturer's instructions: denaturant for 7 minutes, lysis solution for 20 minutes, distilled water for 5 minutes, 70% ethanol for 2 minutes, 100% ethanol for 2 minutes, eosin staining solution for 7-10 minutes, and thiazine staining solution for 7-10 minutes. At least 300 spermatozoa were then analyzed using a bright field microscope.
(§2) In this example, sperm samples were treated with either one, three, or six CORS capsules, each loaded with 5 mg Mo-CORM (corresponds to 0.44 mL CO) for 60 to 270 mins, or left untreated for the same amount of time.
(§3) Human sperm was collected from healthy volunteers in 100 ml specimen containers. Afterwards, the ejaculate was split into equal parts and filled into 15 mL gas tight falcon tubes, with one of the samples being exposed to one or more activated CORS. Then, both samples were analyzed for motility parameters via computer assisted sperm analysis (CASA), the static oxidation-reduction potential (sORP) via MiOXSYS and sperm DNA-fragmentation (SDF) via dispersion test with Halosperm G2 Kit after a predetermined time.
Sperm DNA fragmentation (SDF) was assessed via dispersion test using a Halosperm G2 Kit (From Halotech, Madrid, Spain) following manufacturer's specifications. In brief, the samples were diluted to a maximum of 20 mio/mL. The samples were, then, mixed with the prepared agarose. 8 μL of the mixture was transferred on slides and cooled down for 5 minutes. Different reagents were added and discarded after the set time: Denaturant agent was added for 7 minutes, lysis solution for 20 minutes, distilled water for 5 minutes, 70% ethanol for 2 minutes, 100% ethanol for 2 minutes, eosin staining solution for 7-10 minutes, and thiazine staining solution for 7-10 minutes. A minimum of 400 sperms were analyzed using an Olympus IX73 Inverted LED Fluorescence Microscope.

[2] = system: spermatozoa; assay: Static oxidation-reduction potential (sORP) of human sperm samples by MiOXSYS; assay type: cell-based; details: for Change in oxidation-reduction potential (sORP, ratio treated/untreated): mean±SD; for Oxidation-reduction potential, samples 42_1 and 38_7 (in words): samples with drastically elevated untreated values, FIGS. 7D and 8D
Procedure: as §1
A Male Infertility Oxidative System (MiOXSYS, Englewood, CO) was used to determine static oxidation-reduction potential (sORP) levels. 30 μL of the sperm samples were transferred to the sample application port on a MiOXSYS sensor and analyzed for 2 minutes.
as §2, §3
An oxidative male infertility measuring System (MiOXSYS, Englewood, CO) was used to determine static oxidation-reduction potential (SORP) levels following manufacturer's specifications. 30 μL of sample were transferred to the sample application port onto a MiOXSYS sensor and analyzed for 2 minutes. The results were expressed in milli Volt (mV) and normalized to the seminal sperm concentration (mV/106 sperm/mL).

[3] = system: spermatozoa; assay: Computer assisted sperm analysis (CASA, CEROS II) of human spermatozoa treated with CO vs. without CO: total motility, progressive motility, average path velocity (VAP); assay type: cell-based; details: for Change in progressive motility (ratio treated/untreated) / Change of VAP (ratio treated/untreated) / Change in motility (ratio treated/untreated) / Change in velocity of the sperm cells (VAP, ratio treated/untreated): mean±SD
Procedure: as §1, §2, §3
Total motility, progressive motility, VAP, and concentration of the samples were tested using a CEROS II (Hamilton Thorne, Beverly, MA) computer assisted sperm analysis (CASA) system. 6 μL of a sperm sample diluted 1:1 with Multipurpose Handling Medium-Complete (MHM-C, Fuji Film/Irvine Scientific, Santa Ana, CA) was investigated with the CASA system, and the level of mobility was assessed.

[4] = 0.44 mL CO (5 mg Mo-CORM), 90 min
[5] = 1.32 mL CO (15 mg Mo-CORM), 60 min
[6] = 1.32 mL CO (15 mg Mo-CORM), 90 min
[7] = 1.32 mL CO (15 mg Mo-CORM), 180 min
[8] = 1.32 mL CO (15 mg Mo-CORM), 270 min
[9] = 2.64 mL CO (30 mg Mo-CORM), 90 min
[10] = Example 3, 60 min and 90 min, 0.44 mL and 1.32 mL CO
[11] = Example 3, up to 90 min, 0.44-2.64 mL CO

`[C-]#[O+]` [CO, carbon monoxide] was tested, and the “DNA-fragmentation change (SDF, ratio treated/untreated)” value [1, 4] was 0.83±0.09 fold, the “DNA-fragmentation change (SDF, ratio treated/untreated)” value [1, 5] was 0.77±0.07 fold and the “DNA-fragmentation change (SDF, ratio treated/untreated)” value [1, 6] was 0.67±0.24 fold. For the same compound, the “DNA-fragmentation change (SDF, ratio treated/untreated)” value [1, 7] was 0.90±0.11 fold, the “DNA-fragmentation change (SDF, ratio treated/untreated)” value [1, 8] was 0.90±0.19 fold and the “DNA-fragmentation change (SDF, ratio treated/untreated)” value [1, 9] was 1.31±0.55 fold. The “Correlation of CO effect on SDF with untreated SDF (in words)” value ([1]; 60 min and 90 min, 15 mg CORM, FIG. 10) was “particularly effective in subjects that suffer from high sperm oxidation-reduction potential and/or DNA-fragmentation”, the “Relative DNA fragmentation wCO/woCO (in words)” value ([1]; Example 2, 15 mg Mo-CORM, 90 min, 25-35 °C, 3 subjects, FIG. 3) was “DNA fragmentation is reduced in samples that were contacted with CO; also recorded: a reduction in DNA fragmentation” and the “DNA fragmentation, subjects 3 and 4 (in words)” value ([1]; Example 2, FIG. 3, treated vs untreated aliquots of same donor) was “less DNA fragmentation”. For the same compound, the “Spermatozoan DNA-fragmentation (SDF) vs untreated (in words)” value [1, 10] was “reduced”, the “DNA fragmentation, samples 42_1 and 38_7 (in words)” value ([1]; samples with drastically elevated untreated values, FIGS. 7E and 8E) was “strong reduction” and the “Change in oxidation-reduction potential (sORP, ratio treated/untreated)” value [2, 4] was 0.89±0.17 fold. The “Change in oxidation-reduction potential (sORP, ratio treated/untreated)” value [2, 5] was 0.57±0.35 fold, the “Change in oxidation-reduction potential (sORP, ratio treated/untreated)” value [2, 6] was 0.91±0.12 fold and the “Change in oxidation-reduction potential (sORP, ratio treated/untreated)” value [2, 7] was 1.02±0.32 fold. The “Change in oxidation-reduction potential (sORP, ratio treated/untreated)” value [2, 8] was 1.13±0.28 fold, the “Change in oxidation-reduction potential (sORP, ratio treated/untreated)” value [2, 9] was 0.59±0.24 fold and the “Correlation of CO effect on sORP with untreated sORP (in words)” value ([2]; 60 min and 90 min, 15 mg CORM, FIG. 9) was “particularly effective in subjects that suffer from high sperm oxidation-reduction potential”. The “Relative oxidation-reduction potential wCO/woCO (in words)” value ([2]; Example 2, 15 mg Mo-CORM, 90 min, 25-35 °C, 6 subjects, FIG. 2) was “show a trend to be lower in the samples that were contacted with CO; also recorded: a reduction in oxidative stress/ROS”, the “Oxidation-reduction potential vs untreated (in words)” value [2, 10] was “reduced” and the “Oxidation-reduction potential, samples 42_1 and 38_7 (in words)” value [2] was “strong reduction”. For the same compound, the “Oxidation-reduction potential, samples 42_1 and 38_7 (in words)” value ([2]; listed as carbon monoxide) was “reduced oxidation-reduction potential”, the “Change in progressive motility (ratio treated/untreated)” value [3, 4] was 0.97±0.12 fold and the “Change of VAP (ratio treated/untreated)” value [3, 4] was 1.01±0.08 fold. For the same compound, the “Change in motility (ratio treated/untreated)” value ([3]; 0.44 mL CO (5 mg Mo-CORM, one CORS), 90 min) was 0.98±0.12 fold, the “Change in progressive motility (ratio treated/untreated)” value [3, 5] was 0.85±0.13 fold and the “Change in velocity of the sperm cells (VAP, ratio treated/untreated)” value (shortened to “Change … (VAP, ratio treated/untreated)”) [3, 5] was 0.94±0.09 fold. For the same compound, the “Change in motility (ratio treated/untreated)” value [3, 6] was 0.99±0.03 fold, the “Change in progressive motility (ratio treated/untreated)” value [3, 6] was 0.92±0.17 fold and the “Change … (VAP, ratio treated/untreated)” value [3, 6] was 0.96±0.04 fold. For the same compound, the “Change in motility (ratio treated/untreated)” value [3, 7] was 1.16±0.37 fold, the “Change in progressive motility (ratio treated/untreated)” value [3, 7] was 0.72±0.19 fold and the “Change … (VAP, ratio treated/untreated)” value [3, 7] was 0.79±0.13 fold. The “Change in motility (ratio treated/untreated)” value [3, 8] was 0.94±0.20 fold, the “Change in progressive motility (ratio treated/untreated)” value [3, 8] was 1.04±0.48 fold and the “Change … (VAP, ratio treated/untreated)” value [3, 8] was 0.97±0.08 fold. For the same compound, the “Change in motility (ratio treated/untreated)” value ([3]; 1.32 mL CO (15 mg Mo-CORM, three CORS), 60 min) was 1.13±0.41 fold, the “Change in progressive motility (ratio treated/untreated)” value [3, 9] was 0.88±0.10 fold and the “Change of VAP (ratio treated/untreated)” value [3, 9] was 1.03±0.03 fold. The “Change in motility (ratio treated/untreated)” value ([3]; 2.64 mL CO (30 mg Mo-CORM, six CORS), 90 min) was 0.90±0.12 fold, the “Relative total motility wCO/woCO (in words)” value ([3]; Example 2, 15 mg Mo-CORM, 90 min, 25-35 °C, 5 subjects, FIG. 4A) was “no differences between samples that were contacted with CO (wCO) and without CO (woCO)” and the “Relative progressive motility wCO/woCO (in words)” value ([3]; Example 2, 15 mg Mo-CORM, 90 min, 25-35 °C, 5 subjects, FIG. 4B, exception subject 6) was “progressive motility is increased for wCO as compared to woCO; also recorded: an improvement of progressive motility”. For the same compound, the “Effect on spermatozoan motility (in words)” value ([3]; Example 3, 60 min or 90 min, 0.44 mL or 1.32 mL CO) was “no negative effects on spermatozoan motility”, the “Effect on progressive motility vs untreated (in words)” value [3, 11] was “did not impair sperm motility, progressive motility” and the “Effect on sperm motility vs untreated (in words)” value [3, 11] was “did not impair sperm motility”. The “Effect on velocity vs untreated (in words)” value [3, 11] was “did not impair sperm motility, progressive motility, and velocity”.

From patent publication US20260365990A1, “METHOD FOR THE PRESERVATION OF FUNCTIONAL GAMETES” (Julius-Maximilians-Universität Würzburg, in Vertretung des …, priority 2022, published 2026)
